The results in this text go back to ChEMBL document CHEMBL3508693 (2016).

The nature of series [1]: % of radioactivity recovered as M12 in plasma following intravenous administration of [14C] aliskiren hemifumarate at 10 mg.Kg-1 level in rat. The class given is ADME, organism-based, Albino HAN:WIST. Particulars: in vivo.
Series [2] in a line: % aliskiren hemifumarate recovered as M12 in urine and faeces following single oral dose of 300 mg [14C]SPP100 studied in healthy men. In kind it is ADME, organism-based, Urine/Feces. Particulars: human, in vivo, at 300 mg.
The nature of series [3]: % of radioactivity recovered as M12 in faeces following intravenous administration of [14C] aliskiren hemifumarate at 10 mg.Kg-1 level in rat. The class given is ADME, organism-based, Albino HAN:WIST, Feces. Particulars: in vivo.
Series [4] is described as follows: % of radioactivity recovered as M12 in plasma following oral administration of [14C] aliskiren hemifumarate at 100 mg.Kg-1 level in rat. The class given is ADME, organism-based, Albino HAN:WIST. Particulars: in vivo.
A short description of series [5]: % aliskiren hemifumarate recovered as M12 in faeces following single oral dose of 300 mg [14C]SPP100 studied in healthy men. The class given is ADME, organism-based, Feces. The conditions noted are these: human, in vivo, at 300 mg.
Series [6] in a line: % aliskiren recovered as metabolite M12 in urine following 10 day repeated oral administration of [14C] aliskiren hemifumarate at 100 mg.Kg-1 level studied in rat. In kind it is ADME, organism-based, Albino HAN:WIST. The conditions noted are these: in vivo, 240 h.
The nature of series [7]: % of radioactivity recovered as M12 in faeces following oral administration of [14C] aliskiren hemifumarate at 100 mg.Kg-1 level in rat. In kind it is ADME, organism-based, Albino HAN:WIST, Feces. Particulars: in vivo.
Series [8] is described as follows: % aliskiren recovered as metabolite M12 in faeces following 10 day repeated oral administration of [14C] aliskiren hemifumarate at 100 mg.Kg-1 level studied in rat. The class given is ADME, organism-based, Albino HAN:WIST, Feces. Particulars: in vivo, 240 h.
Series [9] can be described thus: % aliskiren hemifumarate recovered as M12 in urine following single oral dose of 300 mg [14C]SPP100 studied in healthy men. The class given is ADME, organism-based. Particulars: human, in vivo.
Series [10] is described as follows: % aliskiren recovered as metabolite M12 in plasma following 10 day repeated oral administration of [14C] aliskiren hemifumarate at 100 mg.Kg-1 level studied in rat. The class given is ADME, organism-based, Albino HAN:WIST. The conditions noted are these: in vivo, 240 h.
Series [11] can be described thus: % of radioactivity recovered as M12 in urine following oral administration of [14C] aliskiren hemifumarate at 100 mg.Kg-1 level in rat. The class given is ADME, organism-based, Albino HAN:WIST. Particulars: in vivo.
Series [12] is described as follows: % of radioactivity recovered as M12 in urine following intravenous administration of [14C] aliskiren hemifumarate at 10 mg.Kg-1 level in rat. In kind it is ADME, organism-based, Albino HAN:WIST. The conditions noted are these: in vivo.
A short description of series [13]: % aliskiren hemifumarate recovered as M9 in urine following single oral dose of 300 mg [14C]SPP100 studied in healthy men. The class given is ADME, organism-based. The conditions noted are these: human, in vivo.
Series [14] can be described thus: % of radioactivity recovered as M9 from M2 in plasma following intravenous administration of [14C] aliskiren hemifumarate at 10 mg.Kg-1 level in rat. The class given is ADME, organism-based, Albino HAN:WIST. Particulars: in vivo.
Series [15] in a line: % of radioactivity recovered as M9 from M2 in urine following oral administration of [14C] aliskiren hemifumarate at 100 mg.Kg-1 level in rat. The conditions noted are these: in vivo. The class given is ADME, organism-based, Albino HAN:WIST.
The nature of series [16]: % of radioactivity recovered as M9 from M2 in urine following intravenous administration of [14C] aliskiren hemifumarate at 10 mg.Kg-1 level in rat. In kind it is ADME, organism-based, Albino HAN:WIST. The conditions noted are these: in vivo.
Series [17] can be described thus: % aliskiren hemifumarate recovered as M9 in faeces following single oral dose of 300 mg [14C]SPP100 studied in healthy men. The class given is ADME, organism-based, Feces. The conditions noted are these: human, in vivo.
Series [18] in a line: % aliskiren recovered as metabolite M9 in urine following 10 day repeated oral administration of [14C] aliskiren hemifumarate at 100 mg.Kg-1 level studied in rat. The class given is ADME, organism-based, Albino HAN:WIST. Particulars: in vivo, 240 h.
A short description of series [19]: % of radioactivity recovered as M9 from M2 in faeces following intravenous administration of [14C] aliskiren hemifumarate at 10 mg.Kg-1 level in rat. In kind it is ADME, organism-based, Albino HAN:WIST, Feces. The conditions noted are these: in vivo.
Series [20] is described as follows: % aliskiren recovered as metabolite M9 in faeces following 10 day repeated oral administration of [14C] aliskiren hemifumarate at 100 mg.Kg-1 level studied in rat. The class given is ADME, organism-based, Albino HAN:WIST, Feces. The conditions noted are these: in vivo, 240 h.
Series [21] can be described thus: % aliskiren recovered as metabolite M9 in plasma following 10 day repeated oral administration of [14C] aliskiren hemifumarate at 100 mg.Kg-1 level studied in rat. The class given is ADME, organism-based, Albino HAN:WIST. The conditions noted are these: in vivo, 240 h.
Series [22] in a line: % of radioactivity recovered as M9 from M2 in faeces following oral administration of [14C] aliskiren hemifumarate at 100 mg.Kg-1 level in rat. The class given is ADME, organism-based, Albino HAN:WIST, Feces. Particulars: in vivo.
Series [23] is described as follows: % of radioactivity recovered as M9 from M2 in plasma following oral administration of [14C] aliskiren hemifumarate at 100 mg.Kg-1 level in rat. The conditions noted are these: in vivo. In kind it is ADME, organism-based, Albino HAN:WIST.
Series [24] is described as follows: % aliskiren hemifumarate recovered as M9 in urine and faeces following single oral dose of 300 mg [14C]SPP100 studied in healthy men. In kind it is ADME, organism-based, Urine/Feces. Particulars: human, in vivo.
In series [25] the target is T1, CYP2A6 (Homo sapiens, UniProt P11509).
T1 sequence (P11509 whole entry): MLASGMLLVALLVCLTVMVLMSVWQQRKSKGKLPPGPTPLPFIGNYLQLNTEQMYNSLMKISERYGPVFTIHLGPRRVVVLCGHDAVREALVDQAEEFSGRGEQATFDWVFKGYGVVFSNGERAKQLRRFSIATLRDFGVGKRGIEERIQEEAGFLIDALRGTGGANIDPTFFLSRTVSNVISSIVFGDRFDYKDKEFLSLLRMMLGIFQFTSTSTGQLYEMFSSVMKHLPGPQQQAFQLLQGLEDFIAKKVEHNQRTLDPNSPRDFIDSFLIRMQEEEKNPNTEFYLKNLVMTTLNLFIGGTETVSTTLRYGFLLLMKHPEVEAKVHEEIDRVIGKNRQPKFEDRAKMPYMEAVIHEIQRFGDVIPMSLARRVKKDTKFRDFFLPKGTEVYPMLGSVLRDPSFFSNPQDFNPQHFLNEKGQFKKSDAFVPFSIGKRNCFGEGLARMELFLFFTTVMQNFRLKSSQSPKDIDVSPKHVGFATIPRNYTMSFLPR
Description: in vitro. Particulars: probe coumarine.

For series [26], the target named is T2, CYP2C19 (Homo sapiens, UniProt P33261). As to the kind of experiment: in vitro. The conditions noted are these: probe (S)-mephenytoin (50 uM).
Description: Inhibitory activity of 100 uM tranylcypromine on 34 Pmoles of cDNA-derived CYP2C19 enzyme in microsome prepared from human lymphoblastoid cell line
The target in series [27] is T2, CYP2C19. Description: in vitro. The conditions noted are these: probe (S)-mephenytoin (50 uM). The source holds these as a separate data set.
Description: Inhibitory activity of 100 uM tranylcypromine on 49 Pmoles of cDNA-derived CYP2C19 enzyme in microsome prepared from human lymphoblastoid cell line
Series [28] addresses T1, CYP2A6. Description: in vitro. The conditions noted are these: probe coumarine. This is another data set of the same source.
For series [29], the target named is T1, CYP2A6. As to the kind of experiment: in vitro. Particulars: probe coumarine. The source holds these as a separate data set.

T2 sequence (P33261 whole entry): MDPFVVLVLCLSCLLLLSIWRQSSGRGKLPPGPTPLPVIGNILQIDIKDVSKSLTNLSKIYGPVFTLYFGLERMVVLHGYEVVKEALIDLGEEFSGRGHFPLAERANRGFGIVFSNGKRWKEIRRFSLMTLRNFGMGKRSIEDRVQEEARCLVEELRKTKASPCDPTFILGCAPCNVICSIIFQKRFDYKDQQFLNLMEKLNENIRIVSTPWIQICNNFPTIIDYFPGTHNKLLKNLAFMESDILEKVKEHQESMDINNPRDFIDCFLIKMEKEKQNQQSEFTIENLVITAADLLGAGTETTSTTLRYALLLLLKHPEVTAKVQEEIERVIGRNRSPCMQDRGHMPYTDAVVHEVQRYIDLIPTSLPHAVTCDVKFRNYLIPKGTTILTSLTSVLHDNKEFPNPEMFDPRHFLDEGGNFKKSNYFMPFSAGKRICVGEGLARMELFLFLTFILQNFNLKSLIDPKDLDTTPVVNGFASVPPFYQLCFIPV

Turning to `COCCCOc1cc(C[C@@H](C[C@H](NC(C)=O)[C@@H](O)C[C@H](C(=O)NCC(C)(C)C(N)=O)C(C)C)C(C)C)ccc1OC`, the Compound recovery result is “OUTCOME = Not detected or not investigated” in [1]; under 1% in series [2]; “OUTCOME = Not detected or not investigated” in [3]; “OUTCOME = Not detected or not investigated” in series [4]; under 1% in series [5]; “OUTCOME = Not detected” in series [6]. In addition, the Compound recovery entry in [7] was “<= 2%”; in series [8], “OUTCOME = Observed, VALUE = Measurable quantities”; in [9], “OUTCOME = Not detected”; in [10] it was “OUTCOME = Not detected”; in series [11], “OUTCOME = Not detected or not investigated”; in series [12], “OUTCOME = Not detected or not investigated”.

Consider `COCCCOc1cc(C[C@@H](C[C@H](N)[C@@H]2C[C@H](C(C)C)C(=O)O2)C(C)C)ccc1OC`, for which the Compound recovery entry was “OUTCOME = Not detected” in series [13]; “OUTCOME = Not detected or not investigated” in series [14]; “OUTCOME = Non-radiolabeled metabolite was observed by LC-MS” in series [15]; “OUTCOME = Not detected or not investigated” in series [16]; “OUTCOME = Not detected” in series [17]; “OUTCOME = Observed, VALUE = Minor amounts” in series [18]. The Compound recovery entry in series [19] is given as “OUTCOME = Not detected or not investigated”; in [20], “OUTCOME = Observed, VALUE = Minor amounts”; in series [21], “OUTCOME = Observed, VALUE = Minor amounts”; in [22], “OUTCOME = Not detected or not investigated”; in [23] it was “OUTCOME = Not detected or not investigated”; in series [24], “OUTCOME = Not detected”.

For `N[C@@H]1C[C@H]1c1ccccc1.N[C@H]1C[C@@H]1c1ccccc1` [TRANYLCYPROMINE], the inhibition at 100 µM against CYP2A6 [25] was 98%; against CYP2C19 [26], 97%; against CYP2C19 [27], 96%; against CYP2A6 [28], 97%; at CYP2A6 [29] it was 99%.
